For series [1], the system named is human liver cancer cell line HepG2 xenografts. Kind of series: HepG2 xenograft growth inhibition in nude mice. The conditions noted are these: 80 mg/kg i.p. once daily. It is filed as in vivo. How it is done: All the procedures related to animal handling, care, and the treatment in the study were performed following guidelines approved by an Institutional Animal Care and Use Committee (IACUC) of Crown Bioscience, Inc. (Santa Clara, Calif., USA, a contract research organization we hired) based on the guidance of the Association for Assessment and Accreditation of Laboratory Animal Care (AAALAC). Animals were checked for any effects of tumor growth and drug treatment on normal behavior such as mobility, food and water consumption, body weight gain/loss (gross body weights were measured twice weekly), eye/hair matting, and any other abnormal effect. Death and observed clinical signs were recorded on the basis of the number of animals within each group. Individual animals with a tumor volume exceeding 3,000 mm^3 or animals of a group with a mean tumor volume exceeding 2,000 mm^3 were euthanized. In addition, animals showing signs of severe distress and/or pain, dropping body weight more than 20% from that at the start of treatment, or losing the capability of accessing adequate food or water were humanely sacrificed.
Each mouse was inoculated subcutaneously at the right flank with the LNCaP cells (1×10^7) in 0.1 ml of PBS for tumor development. When a mean tumor volume reached around 150 mm^3, the tumor-bearing mice were divided into homogeneous blocks based on their tumor volumes followed by a randomization of mice in each block into treatment groups (thus minimizing variations in tumor response to treatments due to the differential in initial mean tumor volumes). Each treatment group was consisted of 8 tumor-bearing mice. Vehicle (DMSO) or ITE in the vehicle at specified doses were administered to the mice by either i.p. (intraperitoneal) or p.o. (oral) injection once or twice daily for 28 continuous days as indicated.
Tumor volume was measured twice weekly in two dimensions using a caliper and the volume was calculated with a formula of: V=0.5 a×b^2, where a and b are the long and short diameter (in mm) of a tumor, respectively. The tumor volume was then used for calculations of both TGI (Tumor Growth Inhibition) and TGD (Tumor Growth Delay). The TGI was determined by: TGI=ΔT/ΔC×100%, where ΔT was a difference between the mean tumor volume at a specified day of observation and that at the day treatment starts (day 1) for a drug treated group whereas ΔC was the same difference measured for the control group. The TGD was calculated as: TGD=T−C, where T was the time (in days) required for tumors in a drug treated group to reach a predetermined mean tumor volume and C the time (in days) in the control group to reach the same volume. A tumor weight was derived by equating 1,000 mm^3 in volume to 1,000 mg in weight. A net body weight was then derived by subtracting a tumor weight from a corresponding gross body weight with the tumor.
Summary statistics, including mean and the standard error of the mean (SEM), are provided for the tumor volume of each group at each time point. Statistical analysis of difference in tumor volume among groups was conducted on a data set either at the best therapeutic time point or at the final dosing day as indicated. The tumor volume data were log-transformed and evaluated using a one-way ANOVA followed by Tukey's test when significance was observed. All data were analyzed using SPSS 16.0 and p<0.05 was considered to be statistically significant.
The culture and inoculation of human prostate cancer cell line LNCaP were as described in Example 1. The manipulation for human liver cancer cell line HepG2 (ATCC) was similar as that for LNCaP except that DMEM (instead of RPMI-1640) medium was used, the L-glutamine was not used, and 2×10^6 cells were used for inoculation into female nude mice. The handling of human ovarian cancer cell line OVCAR-3 (ATCC) was the same as that of LNCaP except that the DMEM medium was used and 5×10^6 cells were used for inoculation into female nude mice. […]

Series [2] can be described thus: Mouse cancer model studies of Example 5, all models: animal death. The class given is in vivo. The conditions noted are these: any model, entire therapies; with oral gavage of 20 ml/kg water. How it is done: All the procedures related to animal handling, care, and the treatment in the study were performed following guidelines of KeyGen Biotechn Co., Ltd. (Nanjing, China), a contract research organization we hired, based on the guidance of the Association for Assessment and Accreditation of Laboratory Animal Care (AAALAC). Animals were checked for any effects of tumor growth and drug treatment on normal behavior such as mobility, food and water consumption, body weight gain/loss (bodyweights were measured every two days), eye/hair matting, and any other abnormal effect. Death and observed clinical signs were recorded. Individual animals with a tumor volume exceeding 3,000 mm^3 or animals of a group with a mean tumor volume exceeding 2,000 mm^3 were euthanized. In addition, animals showing signs of severe distress and/or pain or losing the capability of accessing adequate food or water were humanely sacrificed.
Each mouse was inoculated subcutaneously in right armpit with about 1×10^6 cells in 0.1 ml of PBS for tumor development. While cells of human in origin were inoculated into female BALB/c nude mice, MFC cells were inoculated into female 615 mice and U14 and 5180 cells into female ICR mice. When a mean tumor volume reached 50 to 150 mm^3 as indicated, the tumor-bearing mice were divided randomly into vehicle control and ITE treatment group. […]

As for `COC(=O)c1csc(C(=O)c2c[nH]c3ccccc23)n1` [ITE, 2-(1′H-indole-3′-carbonyl)-thiazole-4-carboxylic acid methyl ester], the “net body weight loss” value in series [1] is on record as “no obvious net body weight loss”. Also, the “TGD (Tumor Growth Delay)” value in series [1] (at a tumor volume of 800 mm^3) amounted to 29 days. Further, the “TGI (Tumor Growth Inhibition)” value in series [1] (day 22, TGI=ΔT/ΔC×100%) is on record as 25%. In addition, the “animal death in ITE treatment group” value in series [2] is on record as “no single animal death”.
